# From patent publication US10407410B2, “Pyridin-3-yl acetic acid derivatives as inhibitors of human immunodeficiency virus replication” (priority 2016, dated 2019)
# Tested on: NL-RLuc virus (HIV)
# Assay: Inhibition of HIV replication (NL-RLuc luciferase reporter virus in MT-2 cells)
# Format: cell-based
# Details: Human immunodeficiency virus 1, MT2, 120 h
# Excerpt: Inhibition of HIV Replication
# A recombinant NL-RLuc proviral clone was constructed in which a section of the nef gene from NL4-3 was replaced with the Renilla Luciferase gene. This virus is fully infectious and can undergo multiple cycles of replication in cell culture. In addition, the luciferous reporter provides a simple and easy method for quantitating the extent of virus growth and consequently, the antiviral activity of test compounds. The plasmid pNLRLuc contains the proviral NL-Rluc DNA cloned into pUC18 at the PvuII site. The NL-RLuc virus was prepared by transfection of 293T cells with the plasmid pNLRLuc. Transfections were performed using the LipofectAMINE PLUS kit from Invitrogen (Carlsbad, Calif.) according to the manufacturer and the virus generated was titered in MT-2 cells. For susceptibility analyses, the titrated virus was used to infect MT-2 cells in the presence of compound, and after 5 days of incubation, cells were processed and quantitated for virus growth by the amount of expressed luciferase. Assay media was RPMI 1640 supplemented with 10% heat inactivated fetal bovine serum (FBS), 100 units/ml penicillin G/100 units/ml streptomycin, 10 mM HEPES buffer pH 7.55 and 2 mM L-glutamine. The results from at least 2 experiments were used to calculate the EC50 values. Luciferase was quantitated using the Dual Luciferase kit from Promega (Madison, Wis.). Susceptibility of viruses to compounds was determined by incubation in the presence of serial dilutions of the compound. The 50% effective concentration (EC50) was calculated by using the exponential form of the median effect equation where (Fa)=1/[1+(ED50/drug conc.)^m] (Johnson V A, Byington R T. Infectivity Assay. In Techniques in HIV Research. ed. Aldovini A, Walker B D. 71-76. New York: Stockton Press. 1990).
smiles,measurement,value
"Cc1nc(C)c([C@H](OC(C)(C)C)C(=O)O)c(N2CCC(C)(C)CC2)c1-c1ccc2c(c1)CCNC2=O [Example 10, (S)-2-(tert-butoxy)-2-(4-(4,4-dimethylpiperidin-1-yl)-2,6-dimethyl-5-(1-oxo-1,2,3,4-tetrahydroisoquinolin-6-yl)pyridin-3-yl)acetic acid]",EC50,0.307 µM
"Cc1nc(C)c([C@H](OC(C)(C)C)C(=O)O)c(N2CCC(C)(C)CC2)c1-c1ccc2c(c1)CC[C@H](Cc1ccc(F)c(F)c1)O2 [Example 29, (S)-2-tert-Butoxy-2-(5-((R)-2-(3,4-difluorobenzyl)chroman-6-yl)-4-(4,4-dimethylpiperidin-1-yl)-2,6-dimethylpyridin-3-yl)acetic acid]",EC50,0.005 µM
